Patent US9643999B2 (Bristol-Myers Squibb Company, priority 2012, dated 2017)
Like-named read-outs stand apart in the source and are kept apart here.

Assays:
HCV genotype 1b replicon = test: HCV replicon luciferase reporter assay, genotype 1b (LE_1b); format: cell-based; details: Hepatitis C virus, 72 h, HUH-7 cells, genotype 1b (Con1) replicon, 3 days incubation, Renilla luciferase
Text: An HCV replicon whole cell system was established as described by Lohmann V, Korner F, Koch J, Herian U, Theilmann L, Bartenschlager R., Science 285(5424):110-3 (1999) and modified to introduce a luciferase reporter, as first described by Krieger et al (Krieger N, Lohmann V, and Bartenschlager R, J. Virol. 75(10):4614-4624 (2001)). cDNA encoding a humanized form of the Renilla luciferase gene and a linker sequence fused directly to the 3′-end of the luciferase gene were introduced into the replicon construct using an Asc1 restriction site located in core, directly upstream of the neomycin marker gene. The adaptive mutation at position 1179 (serine to isoleucine) was also introduced (Blight K J, Kolykhalov, A A, Rice, C M, Science 290(5498):1972-1974). A stable cell line constitutively expressing this HCV replicon construct was generated by first linearizing plasmid DNAs with ScaI. RNA transcripts were synthesized in vitro using the T7 MegaScript transcription kit (Ambion, Austin, Tex.) according to manufacturer's directions. In vitro transcripts of the cDNA were transfected into the human hepatoma cell line, HUH-7. […] Resulting cell lines were characterized for positive and negative strand RNA production and protein production over time. […]
(§1) HCV replicon luciferase assays were developed to monitor the inhibitory effects of compounds described in the disclosure on HCV genotypes 1a and 1b viral replication. HUH-7 cells, constitutively expressing the HCV replicon, were grown in Dulbecco's Modified Eagle Media (DMEM) (Gibco-BRL) containing 10% Fetal calf serum (FCS) (Sigma) and 1 mg/mL G418 (Gibco-BRL). Compounds were serially diluted 3 folds in DMSO for a twenty-point titration and subsequently transferred to sterile 384-well tissue-culture treated plates (Corning cat #3571). The plates were then seeded with 50 μL of cells at a density of 3.0×10^3 cells/well in DMEM containing 4% FCS (final DMSO concentration at 0.5%). After 3 days incubation at 37° C., cells were analyzed for Renilla Luciferase activity using the EnduRen as substrate (Promega cat #E6485). The EnduRen substrate was diluted in DMEM and then added to the plates to a final concentration of 7.5 μM. The plates were incubated for 2 hrs at 37° C. and then read immediately for 30 seconds with Viewlux Imager (PerkinElmer) using a luminescence program. To assess cytotoxicity of compounds, CC50 values were generated by multiplexing the EnduRen-containing plates with Cell Titer-Blue (Promega, cat #G8082). Cell-Titer Blue (3 μL) was added to each well and incubated for 8 hrs at 37° C. The fluorescence signal from each well was read, with an excitation wavelength at 525/10 nm and an emission wavelength of 598/10 nm, using the Viewlux Imager.
(§2) The EC50 values for compounds were calculated by using a four-parameter logistic equation: y=A+((B−A)/(1+((C/x)^D))), where A and B denotes minimal and maximal % inhibition, respectively, C is the EC50, D is the hill slope and x represents compound concentration.

HCV genotype 1a replicon = test: HCV replicon luciferase reporter assay, genotype 1a (LE_1a); format: cell-based; details: Hepatitis C virus, 72 h, HUH-7 cells, genotype 1a H77 replicon, 3 days incubation, Renilla luciferase
Text: An HCV replicon whole cell system was established as described by Lohmann V, Korner F, Koch J, Herian U, Theilmann L, Bartenschlager R., Science 285(5424):110-3 (1999) and modified to introduce a luciferase reporter, as first described by Krieger et al (Krieger N, Lohmann V, and Bartenschlager R, J. Virol. 75(10):4614-4624 (2001)). cDNA encoding a humanized form of the Renilla luciferase gene and a linker sequence fused directly to the 3′-end of the luciferase gene were introduced into the replicon construct using an Asc1 restriction site located in core, directly upstream of the neomycin marker gene. The adaptive mutation at position 1179 (serine to isoleucine) was also introduced (Blight K J, Kolykhalov, A A, Rice, C M, Science 290(5498):1972-1974). A stable cell line constitutively expressing this HCV replicon construct was generated by first linearizing plasmid DNAs with ScaI. RNA transcripts were synthesized in vitro using the T7 MegaScript transcription kit (Ambion, Austin, Tex.) according to manufacturer's directions. In vitro transcripts of the cDNA were transfected into the human hepatoma cell line, HUH-7. […] Resulting cell lines were characterized for positive and negative strand RNA production and protein production over time.
A stable HCV replicon luciferase reporter cell line representing the genotype 1a H77 strain (Yanagi M, Purcell R H, Emerson S U, et al. Transcripts from a single full-length cDNA clone of hepatitis C virus are infectious when directly transfected into the liver of a chimpanzee. Proc Natl Acad Sci USA 1997; 94(16):8738-8743) was generated as described previously for the genotype 1b(Con1) replicon luciferase cell line. The replicon construct was modified by introducing mutations were introduced into the genes encoding the NS3 helicase domain (proline replaced by leucine at position 1496) and NS5A (serine to isoleucine at position 2204) to improve replication in cell culture.
as §1, §2

With CC[C@@H]1C[C@H](C)CC/C=C\[C@@H]2C[C@@]2(C(=O)NS(=O)(=O)C2CC2)NC(=O)[C@@H]2C[C@@H](Oc3nc4cccnc4nc3C(F)(F)F)CN2C(=O)[C@H]1NC(=O)OC(C)(C)C [Compound 4329, tert-butyl((2R,6S,7R,9R,13aS,14aR,16aS,Z)-14a-((cyclopropylsulfonyl)carbamoyl)-7-ethyl-9-methyl-5,16-dioxo-2-((3-(trifluoromethyl)pyrido[2,3-b]pyrazin-2-yl)oxy)-1,2,3,5,6,7,8,9,10,11,13a,14,14a,15,16,16a-hexadecahydrocyclopropa[e]pyrrolo[1,2-a][1,4]diazacyclopentadecin-6-yl)carbamate] the EC50 (HCV genotype 1b replicon; read-out: LE_1b (EC50, range)) was 35 to 145 nM and the EC50 (HCV genotype 1a replicon; read-out: LE_1a (EC50, range)) was 35 to 145 nM.

Molecule CC[C@@H]1C[C@H](C)CC/C=C\[C@@H]2C[C@@]2(C(=O)NS(=O)(=O)C2CC2)NC(=O)[C@@H]2C[C@@H](Oc3nc4ncccc4nc3C(F)(F)F)CN2C(=O)[C@H]1NC(=O)OC(C)(C)C [Compound 4330, tert-butyl((2R,6S,7R,9R,13aS,14aR,16aS,Z)-14a-((cyclopropylsulfonyl)carbamoyl)-7-ethyl-9-methyl-5,16-dioxo-2-((2-(trifluoromethyl)pyrido[2,3-b]pyrazin-3-yl)oxy)-1,2,3,5,6,7,8,9,10,11,13a,14,14a,15,16,16a-hexadecahydrocyclopropa[e]pyrrolo[1,2-a][1,4]diazacyclopentadecin-6-yl)carbamate] has an EC50 (HCV genotype 1b replicon; read-out: LE_1b (EC50, range)) of 5.01 to 35 nM and an EC50 (HCV genotype 1a replicon; read-out: LE_1a (EC50, range)) of 5.01 to 35 nM.

CC[C@@H]1C[C@H](C)CC/C=C\[C@@H]2C[C@@]2(C(=O)NS(=O)(=O)C2(C)CC2)NC(=O)[C@@H]2C[C@@H](Oc3cc(-n4ccc(C(C)C)n4)nc4cc(OC)ccc34)CN2C(=O)[C@H]1NC(=O)OC(C)(C)C(F)(F)F [Compound 4358] showed an EC50 (HCV genotype 1b replicon; read-out: LE_1b (EC50, range)) of 1.01 to 5 nM and an EC50 (HCV genotype 1a replicon; read-out: LE_1a (EC50, range)) of 1.01 to 5 nM.

In the case of C[C@@H]1CC/C=C\[C@@H]2C[C@@]2(C(=O)NS(=O)(=O)C2(C)CC2)NC(=O)[C@@H]2C[C@@H](Oc3nccc4c5c(ccc34)CCO5)CN2C(=O)[C@@H](NC(=O)OC(C)(C)C)[C@H](C)C1 [Compound 5491, tert-butyl((2R,6S,7R,9R,13aS,14aR,16aS,Z)-2-((2,3-dihydrofuro[2,3-f]isoquinolin-6-yl)oxy)-7,9-dimethyl-14a-(((1-methylcyclopropyl)sulfonyl)carbamoyl)-5,16-dioxo-1,2,3,5,6,7,8,9,10,11,13a,14,14a,15,16,16a-hexadecahydrocyclopropa[e]pyrrolo[1,2-a][1,4]diazacyclopentadecin-6-yl)carbamate], the EC50 (HCV genotype 1b replicon; read-out: LE_1b (EC50)) is reported as 2.57 nM, the EC50 (HCV genotype 1b replicon; read-out: LE_1b (EC50, range)) is reported as 1.01 to 5 nM and the EC50 (HCV genotype 1a replicon; read-out: LE_1a (EC50)) is reported as 5.41 nM. It also gave an EC50 (HCV genotype 1a replicon; read-out: LE_1a (EC50, range)) of 5.01 to 35 nM.

CC[C@@H]1C[C@H](C)CC/C=C\[C@@H]2C[C@@]2(C(=O)NS(=O)(=O)C2(C)CC2)NC(=O)[C@@H]2C[C@@H](Oc3nccc4c5c(ccc34)CCO5)CN2C(=O)[C@H]1NC(=O)OC(C)(C)C [Compound 5493, tert-butyl((2R,6S,7R,9R,13aS,14aR,16aS,Z)-2-((2,3-dihydrofuro[2,3-f]isoquinolin-6-yl)oxy)-7-ethyl-9-methyl-14a-(((1-methylcyclopropyl)sulfonyl)carbamoyl)-5,16-dioxo-1,2,3,5,6,7,8,9,10,11,13a,14,14a,15,16,16a-hexadecahydrocyclopropa[e]pyrrolo[1,2-a][1,4]diazacyclopentadecin-6-yl)carbamate] showed an EC50 (HCV genotype 1b replicon; read-out: LE_1b (EC50, range)) of 5.01 to 35 nM and an EC50 (HCV genotype 1a replicon; read-out: LE_1a (EC50, range)) of 35 to 145 nM.

With C[C@@H]1CC/C=C\[C@@H]2C[C@@]2(C(=O)NS(=O)(=O)C2(C)CC2)NC(=O)[C@@H]2C[C@@H](Oc3nccc4c5c(ccc34)CCO5)CN2C(=O)[C@@H](NC(=O)OC(C)(C)C(C)(F)F)[C@H](C)C1 [Compound 5495] the EC50 (HCV genotype 1b replicon; read-out: LE_1b (EC50, range)) was 0.51 to 1 nM and the EC50 (HCV genotype 1a replicon; read-out: LE_1a (EC50, range)) was 1.01 to 5 nM.

C[C@@H]1CC/C=C\[C@@H]2C[C@@]2(C(=O)NS(=O)(=O)C2(C)CC2)NC(=O)[C@@H]2C[C@@H](Oc3nccc4c5c(ccc34)CCO5)CN2C(=O)[C@@H](NC(=O)OC(C)(C)C(F)(F)F)[C@H](C)C1 [Compound 5497] was tested, and the EC50 (HCV genotype 1b replicon; read-out: LE_1b (EC50, range)) was 1.01 to 5 nM and the EC50 (HCV genotype 1a replicon; read-out: LE_1a (EC50, range)) was 5.01 to 35 nM.

CC[C@@H]1C[C@H](C)CC/C=C\[C@@H]2C[C@@]2(C(=O)NS(=O)(=O)C2(C)CC2)NC(=O)[C@@H]2C[C@@H](Oc3nccc4c5c(ccc34)CCO5)CN2C(=O)[C@H]1NC(=O)OC(C)(C)C(F)(F)F [Compound 5500] was tested, and the EC50 (HCV genotype 1b replicon; read-out: LE_1b (EC50, range)) was 5.01 to 35 nM and the EC50 (HCV genotype 1a replicon; read-out: LE_1a (EC50, range)) was 5.01 to 35 nM.
